The source of these data is patent publication US7176261B2, “Angiotensin-(1-7) eluting polymer-coated medical device to reduce restenosis and improve endothelial cell function” (Medtronic, Inc., priority 2004, dated 2007).

One assay deals with T1, ACE (Homo sapiens, UniProt P12821).
T1 construct: host or cells: patients (in vivo, endogenous enzyme)
To be noted: after six months of treatment, more than 2,000 patients; cited from earlier work.

In assay [1] the test system is rats with uncoated stents implanted in the abdominal aorta. The assay can be described thus: Angiotensin-(1-7) pump study in rat aorta model (uncoated stents, micropump infusion). Type of assay: in vivo. The protocol:
The effects of Ang-(1-7) on restenosis were studied in rats with uncoated stents implanted in the abdominal aorta with Ang-(1-7) infused by implantable micro pump. Twelve rats per group were implanted with stents and micropumps containing one of three infusion regimens for three weeks. Control rats received saline infusions and the Ang-(1-7) groups received infusion of Ang-(1-7) at 10 μg/kg/hr or 24 μg/kg/hr.
The rats receiving 24 μg/kg/hr, however, scored lower in neointimal level and percentage stenosis (Table 1 and FIG. 7). A 27% reduction in neointimal area was seen between the control rats and those receiving 24 μg/kg/hr Ang-(1-7). Ang-(1-7) has a clear beneficial effect on the restenosis rate.

Assay [2] concerns smooth muscle cell proliferation. As to conditions: intravenous infusion; cited from earlier work.
The mark [3] stands for this setting: Ang-(1-7) infusion 24 μg/kg/hr for three weeks.

Marks after values point to notes of the source that are not given here.

T1 sequence (P12821 30-1306): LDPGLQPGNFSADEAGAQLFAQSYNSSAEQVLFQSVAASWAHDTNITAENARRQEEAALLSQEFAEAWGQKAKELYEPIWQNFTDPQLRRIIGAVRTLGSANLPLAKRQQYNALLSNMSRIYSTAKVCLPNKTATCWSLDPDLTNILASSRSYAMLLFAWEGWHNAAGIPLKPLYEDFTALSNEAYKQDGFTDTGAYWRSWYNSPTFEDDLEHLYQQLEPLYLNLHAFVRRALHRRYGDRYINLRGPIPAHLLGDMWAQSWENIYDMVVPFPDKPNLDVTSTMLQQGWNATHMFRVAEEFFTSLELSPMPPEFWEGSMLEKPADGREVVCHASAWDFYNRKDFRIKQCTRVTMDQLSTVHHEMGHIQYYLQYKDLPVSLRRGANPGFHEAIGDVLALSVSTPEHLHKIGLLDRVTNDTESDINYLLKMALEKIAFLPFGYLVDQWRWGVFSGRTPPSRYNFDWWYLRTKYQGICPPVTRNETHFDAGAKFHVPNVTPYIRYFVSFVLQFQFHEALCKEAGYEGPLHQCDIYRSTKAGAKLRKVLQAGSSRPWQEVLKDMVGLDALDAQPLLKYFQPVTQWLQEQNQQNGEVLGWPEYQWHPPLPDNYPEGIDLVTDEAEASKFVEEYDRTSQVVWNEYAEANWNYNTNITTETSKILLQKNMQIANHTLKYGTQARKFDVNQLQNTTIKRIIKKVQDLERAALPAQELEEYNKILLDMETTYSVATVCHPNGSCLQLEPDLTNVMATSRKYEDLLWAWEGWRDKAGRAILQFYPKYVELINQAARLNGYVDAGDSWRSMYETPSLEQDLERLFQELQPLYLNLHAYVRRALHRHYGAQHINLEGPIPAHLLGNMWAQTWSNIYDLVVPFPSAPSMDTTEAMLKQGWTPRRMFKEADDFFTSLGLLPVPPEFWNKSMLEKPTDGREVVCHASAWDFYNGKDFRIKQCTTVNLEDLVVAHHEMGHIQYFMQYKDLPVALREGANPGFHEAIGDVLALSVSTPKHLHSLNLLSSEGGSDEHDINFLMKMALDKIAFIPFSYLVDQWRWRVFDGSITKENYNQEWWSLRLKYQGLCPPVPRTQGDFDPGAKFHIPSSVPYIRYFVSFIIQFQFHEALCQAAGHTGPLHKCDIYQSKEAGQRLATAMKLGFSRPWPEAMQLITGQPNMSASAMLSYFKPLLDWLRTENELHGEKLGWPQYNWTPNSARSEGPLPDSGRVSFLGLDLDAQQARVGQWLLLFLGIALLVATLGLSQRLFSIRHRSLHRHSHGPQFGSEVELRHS

For the molecule `CCOC(=O)[C@H](CCc1ccccc1)N[C@H]1CCCN2CCC[C@@H](C(=O)O)N2C1=O` [cilazapril], the “incidence of restenosis vs placebo” value on ACE is reported as “no significant differences”.

Turning to “Asp Arg Val Tyr lie His Pro (DRVYIHP; listed as Homo sapiens) [Ang-(1-7)]”, the “difference compared to the control group in any of the parameters measured” value in assay [1] (10 μg/kg/hr infusion) is “did not show any significant difference”. In addition, in assay [1] (24 μg/kg/hr infusion), the “reduction in neointimal area vs control rats” value was 27%. Further, in assay [1] (Ang-(1-7) infusion), the “endothelial function as measured in the thoracic aorta position, proximal from the stent” value was “improved endothelial function”. Moreover, in assay [1] (setting [3]), the “Media Area” value is 0.40 ± 0.05 mm^2 and the Neointimal Thickness came out at 111 ± 8 µm. Further, in assay [1] (Ang-(1-7) infusion 24 μg/kg/hr for three weeks, p = 0.016 vs. control), the “Percentage Stenosis” value is given as 10.4 ± 1.0 %. The Neointimal area in assay [1] (Ang-(1-7) infusion 24 μg/kg/hr for three weeks, p = 0.035 vs. control) was 0.51 ± 0.05* mm^2. The “smooth muscle cell proliferation associated with balloon-catheter injury” value in assay [2] is on record as “inhibited”.
